From patent US20240360145A1, “PYRIMIDINE-2,4-DIAMINE DERIVATIVES AS WELL AS PREPARATION METHOD THEREFOR AND USE THEREOF” (LISEN THERAPEUTICS, INC., priority 2022, published 2024)

How the values were obtained:
Format in all cases: cell-based
HT29 (colon cancer) = assay: Cell viability IC50 (CellTiter-Glo), HT29; settings: Homo sapiens, HT-29, HT29, 72 hours
Procedure: (§1) The cancer cell lines were cultured to the logarithmic growth phase according to conventional culture methods, and the cells were inoculated into a 384-well plate at a density of 2,000 cells/well in a volume of 40 μl/well. The concentrations of added compounds were: […], 1.67 μM, 0.56 μM, 0.19 μM, 0.062 μM, 0.021 μM, 0.0069 μM, 0.0023 μM, 0.00076 μM, and 0 μM. After 72 hours, cell viability was detected using the CellTiter-Glo™ Detection Kit.

PC-3 (prostate cancer) = assay: Cell viability IC50 (CellTiter-Glo), PC-3; settings: PC-3, 72 hours
Procedure: as §1

Hela (cervical cancer) = assay: Cell viability IC50 (CellTiter-Glo), Hela; settings: Homo sapiens, 72 hours
Procedure: as §1

ASH-3 (thyroid cancer) = assay: Cell viability IC50 (CellTiter-Glo), ASH-3; settings: ASH-3, 72 hours
Procedure: as §1

[1] = system: KYSE-70 (esophageal cancer); assay: Cell viability IC50 (CellTiter-Glo), KYSE-70; settings: Homo sapiens, KYSE-70, 72 hours
Procedure: as §1

[2] = system: various cancer cell lines; assay: Cell viability IC50 (CellTiter-Glo), summary over various cancer cell lines
Procedure: as §1

NCI-H446 cells = assay: Cell viability IC50 (CCK-8), small cell lung cancer cell line H446; settings: Homo sapiens, NCI-H446; H446, CCK-8
Procedure: (§2) Small cell lung cancer cell lines DMS114, NCI-H1688, NCI-H82, NCI-H146, and NCI-H446 cells were cultured in RPMI-1640 medium containing 10% fetal bovine serum and 1% penicillin-streptomycin. All the cells were cultured in a constant temperature incubator containing 5% CO2 at 37° C.
(§3) Small cell lung cancer is a highly heterogeneous malignant tumor, and its clinical treatment is mainly based on traditional chemotherapy (mainly platinum medicaments and etoposide). In order to study the anti-tumor activity of the compounds of the present disclosure in small cell lung cancer, the CCK-8 method was used to investigate the cell viability IC50 of compound 8 for five small cell lung cancer cell lines.

OV-90 (ovarian cancer) = assay: Cell viability IC50 (CellTiter-Glo), OV-90; settings: Homo sapiens, OV-90, 72 hours
Procedure: as §1

DMS114 cells = assay: Cell viability IC50 (CCK-8), small cell lung cancer cell line DMS114; settings: Homo sapiens, DMS-114; DMS114, CCK-8
Procedure: as §2, §3

NCI-H1792 cells = assay: Cell viability IC50 (MTT), AMG510-resistant NCI-H1792 cells; settings: Homo sapiens, NCI-H1792 cells (KRAS G12C)
Procedure: Non-small cell lung cancer cell lines NCI-H1975, NCI-H1650, and NCI-H1792 were cultured in RPMI-1640 medium containing 10% fetal bovine serum and 1% penicillin-streptomycin. 1% sodium pyruvate was additionally added when culturing NCI-H1975 cells. All the cells were cultured in a constant temperature incubator containing 5% CO2 at 37° C.
(1) The cells were cultured to the logarithmic growth phase. When the confluence reached about 90%, the cells were digested with 0.25% trypsin, and complete medium was added to collect the cells. After centrifugation at room temperature, the supernatant was discarded, and the cell precipitate was resuspended with fresh complete medium. […]
(5) The medium was carefully aspirated off, 100 μl of DMSO was added to dissolve the precipitate formed by the reaction with MTT, shaking and mixing to mix the blue-violet crystals well, and the light absorbance value at 492 nm was read with a microplate reader.
(6) IC50 of the compounds for different cells was calculated based on the light absorption value of each group. Specifically, the absorbance value under treatment with different concentrations of compounds was first subtracted from the absorbance value of the blank well, and then the absorbance value of the 0 μM group was taken as 100% to calculate the cell survival rate after treatment with different concentrations of compounds. […]

NCI-H1688 cells = assay: Cell viability IC50 (CCK-8), small cell lung cancer cell line H1688; settings: NCI-H1688; H1688, CCK-8
Procedure: as §2, §3

Compound: CN1CC2CCC(C1)N2Cc1ccc(Nc2ncc(Cl)c(Nc3ccccc3S(=O)(=O)N(C)C)n2)cc1 [Compound 8, 2-((5-chloro-2-((4-((3-methyl-3,8-diazabicyclo[3.2.1]octan-8-yl)methyl)phenyl)amino)pyrimidin-4-yl)amino)-N,N-dimethylbenzenesulfonamide]
- IC50 (HT29 (colon cancer)): 0.19 µM
- IC50 (PC-3 (prostate cancer)): > 3 µM
- IC50 (Hela (cervical cancer)): 0.123 µM
- IC50 (ASH-3 (thyroid cancer)): 0.044 µM
- IC50 [1]: 0.122 µM
- IC50 ([2]; colon cancer, liver cancer, cervical cancer, ovarian cancer, and esophageal cancer): < 0.2 µM
- IC50 ([2]; thyroid cancer, breast cancer, bladder cancer, glioma, pancreatic cancer, melanoma, and gastric cancer): < 0.1 µM
- IC50 (NCI-H446 cells): 0.00758 µM
- IC50 (OV-90 (ovarian cancer)): 0.103 µM
- IC50 (DMS114 cells): 0.00603 µM
- IC50 (NCI-H1792 cells): 0.0406 µM
- IC50 (NCI-H1688 cells): 0.00501 µM
